How the values were obtained:
Type in all cases: cell-based
[1] = system: rotenone injured primary mesencephalic rat neurons; test: In vitro Parkinson's disease model: rotenone injured primary mesencephalic rat neurons; details: rotenone 10 nM, 24 hours; total number of TH positive neurons
Experimental: Rat dopaminergic neurons were cultured as described by Schinelli et al., (1988 J. Neurochem 50 pp1900-07) and Visanji et al., (2008 FASEB J. 22(7) pp2488-97). Briefly, the midbrains obtained from 15-day old rat embryos (Janvier Labs, France) were dissected under a microscope. The embryonic midbrains were removed and placed in ice-cold medium of Leibovitz (L15, Pan Biotech, Batch: 9310614) containing 2% of Penicillin-Streptomycin (PS, Pan Biotech, Batch: 1451013) and 1% of bovine serum albumin (BSA, Pan Biotech, Batch: h140603). The ventral portion of the mesencephalic flexure, a region of the developing brain rich in dopaminergic neurons, was used for the cell preparations.
The midbrains were dissociated by trypsinisation for 20 min at 37° C. (Trypsin 0.05% EDTA 0.02%, PanBiotech, Batch: 5890314). The reaction was stopped by the addition of Dulbecco's modified Eagle's medium (DMEM, PanBiotech, Batch: 1300714) containing DNAase I grade II (0.1 mg/ml, PanBiotech, Batch: H140508) and 10% of foetal calf serum (FCS, Gibco, Batch: 41Q7218K). Cells were then mechanically dissociated by 3 passages through a 10 ml pipette. Cells were then centrifuged at 180×g for 10 min at +4° C. on a layer of BSA (3.5%) in L15 medium. The supernatant was discarded and the cell pellets were re-suspended in a defined culture medium consisting of Neurobasal (Invitrogen, Batch: 1636133) supplemented with B27 (2%, Invitrogen, Batch: 1660670), L-glutamine (2 mM, PanBiotech, Batch: 8150713) and 2% of PS solution and 10 ng/ml of Brain-derived neurotrophic factor (BDNF, PanBiotech, Batch: H140108) and 1 ng/ml of Glial-Derived Neurotrophic Factor (GDNF, Pan Biotech, Batch: H130917). Viable cells were counted in a Neubauer cytometer using the trypan blue exclusion test. The cells were seeded at a density of 40 000 cells/well in 96 well-plates pre-coated with poly-L-lysine (Corning Biocoat, Batch: 6614022) and maintained in a humidified incubator at 37° C. in 5% CO2/95% air atmosphere. Half of the medium was changed every 2 days with fresh medium.
On day 6 of culture, the medium was removed and fresh medium was added, without or with rotenone (Sigma, Batch: 021M2227V) at 10 nM diluted in control medium, 3 wells per condition were assessed. […]
The immunolabeled cultures were automatically examined with ImageXpress (Molecular device USA). For each condition, 20 automatically fields per well (representing ˜80% of the total surface of the well) from 3 wells were analyzed. The total number of TH neurons was automatically analyzed using Custom module editor (Molecular Devices, USA). […] All values were expressed as mean +/−SEM (s.e. mean) of the 1 culture (n=3 wells per condition per culture).

Min6 insulinoma cell = test: Min6 cell line cytoprotection from ER stress (tunicamycin); details: 6 hour exposure to tunicamycin 2.5 μg/mL, different concentrations, viability 72h
Experimental: Cells were plated in 96 well plates at a density of 0.5.10^6 cells/mL for Min6 cell line, 0,4.10^6 cells/mL for INS1 cell line the day before the treatment. ER stress was elicited by addition of 2.5 μg/mL tunicamycin (Sigma Aldrich) together with phosphatases inhibitors. Media were changed 6h later with fresh media and the cytoprotection was maintained by the addition of phosphatases inhibitors. Cell viability was assessed by measuring the reduction of WST-8 into formazan using Cell Counting Kit-8 (Sigma) according to the supplier's recommendation, 72h after tunicamycin treatment.

[2] = system: T181P mutated DM20 protein expressed in Human 293T cell; test: In vitro model of leukodystrophy (PMD): overexpression of mutated DM20, protein accumulation by western-blot; details: 5 microM, western-blot 48h
Experimental: Human open reading frame (ORF) sequences for PLP1, DM20 and Insulin were obtained from Life Technologies (Invitrogen) (IOH41689, IOH5252 and IOH7334 respectively). Construct cloning into the expression plasmid pDEST26 (Invitrogen) was performed by Gateway® LR Clonase™ II Enzyme Mix (Invitrogen). ORF mutations were carried out using the QuikChange Lightning Site-Directed Mutagenesis Kit (Stratagene) (T181P mutation for PLP1 and DM20 ORFs, Akita (C96Y) for Insulin ORF).
One day before transfection, 293T cells were plated at 300,000 cells/mL. 293T cells were transfected with PLP1 and DM20 mutant constructs using Lipofectamine 2000 according to manufacturer's procedure. After transfection, cells were treated with molecules or left untreated.
As a control, cells were transfected with native forms of the proteins. 48h later, cellular lysates were harvested. Protein accumulation was assessed by western-blot.

## CCCONC(=N)N/N=C/c1ccccc1Cl [Compound 12, 2-(2-chlorobenzylidene)-N-propoxyhydrazinecarboximidamide]
[1]
  protection of rotenone injured primary mesencephalic rat neurons (FIG. 3): dose dependent protection
Min6 insulinoma cell
  prevention of Min6 insulinoma cell death (FIG. 7): prevent Min6 insulinoma cell death
[2]
  prevention of accumulation of T181P mutated DM20 protein (FIG. 5): able to prevent the accumulation

## CCONC(=N)N/N=C/c1c(F)cccc1Cl [Compound 17, 2-(2-chloro-6-fluorobenzylidene)-N-ethoxyhydrazinecarboximidamide]
[1]
  protection of rotenone injured primary mesencephalic rat neurons (FIG. 3): dose dependent protection
Min6 insulinoma cell
  prevention of Min6 insulinoma cell death (FIG. 7): prevent Min6 insulinoma cell death
[2]
  prevention of accumulation of T181P mutated DM20 protein (FIG. 5): able to prevent the accumulation

## CCONC(=N)N/N=C/c1c(Cl)cccc1Cl [Compound 11, 2-(2,6-dichlorobenzylidene)-N-ethoxyhydrazinecarboximidamide]
[1]
  protection of rotenone injured primary mesencephalic rat neurons (FIG. 3): dose dependent protection
